# Laboratory results reported in patent publication US4176180A (priority 1977, dated 1979).
# Where a name gives a salt, the structure may show the parent alone.
# What was measured:
# [1] = serum concentration of erythromycin two hours after ethyl-succinyl erythromycin; type: in vivo, human (ill persons)
# [2] = in some patients, after prolonged treatment; cited from earlier work
# Str. non-groupable = conditions: gram positive cocci; cited from earlier work
# Bordetella pertussis = conditions: gram negative bacilli; cited from earlier work
# Str. faecalis = conditions: gram positive cocci; cited from earlier work
# Bacteroides fragilis = conditions: gram negative bacilli; cited from earlier work
# Mycoplasma pneumoniae = conditions: mycoplasmae; cited from earlier work
# Staph. epidermidis = conditions: gram positive cocci; cited from earlier work
# clinical = conditions: human, in vivo
# Str. pyogenes = conditions: gram positive cocci; cited from earlier work
# Erysipelothrix insidiosa = conditions: gram positive bacilli; cited from earlier work
# Neisseria gonorrhoeae = conditions: gram negative cocci; cited from earlier work
# Diplococcus pneumoniae = conditions: gram positive cocci; cited from earlier work
# Plectridium tetani = conditions: gram positive bacilli; cited from earlier work
# [3] = human, in vivo, 2 h
# [4] = system: Corynebacterium diphteriae; conditions: gram positive bacilli; cited from earlier work
# Staph. aureus = conditions: gram positive cocci; cited from earlier work
# Haemophilus influenzae = conditions: gram negative bacilli; cited from earlier work
# Neisseria menigitidis = conditions: gram negative cocci; cited from earlier work
# Pasteurella multocida = conditions: gram negative bacilli; cited from earlier work
# Clostridium perfringens = conditions: gram positive bacilli; cited from earlier work
# Listeria monocytogenes = conditions: gram positive bacilli; cited from earlier work
# Brucella melitensis = conditions: gram negative bacilli; cited from earlier work
# [5] = Serum concentration of erythromycine, Average
smiles,measurement,setting,value
"CCOC(=O)CCC(=O)O[C@H]1[C@H](O[C@@H]2[C@@H](C)[C@H](O[C@H]3C[C@@](C)(OC)[C@@H](O)[C@H](C)O3)[C@@H](C)C(=O)O[C@H](CC)[C@@](C)(O)[C@H](O)[C@@H](C)C(=O)[C@H](C)C[C@@]2(C)O)O[C@H](C)C[C@@H]1N(C)C [ES, ethyl-succinyl erythromycin]",regularity of the serum concentrations obtained,[1]; two hours following administration,irregularity in the serum concentrations obtained
same,"Serum concentration of erythromycin, Total","[1]; two hours following administration of 600 mg, sum over 9 persons",15360 ng/mL
"CCC(=O)O[C@H]1[C@H](O[C@@H]2[C@@H](C)[C@H](O[C@H]3C[C@@](C)(OC)[C@@H](O)[C@H](C)O3)[C@@H](C)C(=O)O[C@H](CC)[C@@](C)(O)[C@H](O)[C@@H](C)C(=O)[C@H](C)C[C@@]2(C)O)O[C@H](C)C[C@@H]1N(C)C [estolate, lauryl sulfate of the propionic ester of erythromycin]",hepatotoxicity,[2],not inconsiderable hepatotoxicity
"CC[C@H]1OC(=O)[C@H](C)[C@@H](O[C@H]2C[C@@](C)(OC)[C@@H](O)[C@H](C)O2)[C@H](C)[C@@H](O[C@@H]2O[C@H](C)C[C@H](N(C)C)[C@H]2O)[C@](C)(O)C[C@@H](C)C(=O)[C@H](C)[C@@H](O)[C@]1(C)O [E, erythromycin]",MINIMUM INHIBITING CONCENTRATIONS,Str. non-groupable,0.02-3.1 […] MILILITER OF MEDIUM
same,MINIMUM INHIBITING CONCENTRATIONS,Bordetella pertussis,0.2 […] MILILITER OF MEDIUM
same,MINIMUM INHIBITING CONCENTRATIONS,Str. faecalis,0.6-3.1 […] MILILITER OF MEDIUM
same,MINIMUM INHIBITING CONCENTRATIONS,Bacteroides fragilis,0.8-6.2 […] MILILITER OF MEDIUM
same,MINIMUM INHIBITING CONCENTRATIONS,Mycoplasma pneumoniae,0.004-0.016 […] MILILITER OF MEDIUM
same,MINIMUM INHIBITING CONCENTRATIONS,Staph. epidermidis,0.2-3.1 […] MILILITER OF MEDIUM
same,Cmax,"clinical; Maximum concentrations of erythromycin, Average m",996 ng/mL
same,concentration at 1 h,clinical; [5],321 ng/mL
same,concentration at 1.5 h,clinical; [5],610 ng/mL
same,concentration at 2 h,clinical; [5],988 ng/mL
same,MINIMUM INHIBITING CONCENTRATIONS,Str. pyogenes,0.02-0.2 […] MILILITER OF MEDIUM
same,MINIMUM INHIBITING CONCENTRATIONS,Erysipelothrix insidiosa,0.06 […] MILILITER OF MEDIUM
same,MINIMUM INHIBITING CONCENTRATIONS,Neisseria gonorrhoeae,0.04-0.4 […] MILILITER OF MEDIUM
same,MINIMUM INHIBITING CONCENTRATIONS,Diplococcus pneumoniae,0.01-0.2 […] MILILITER OF MEDIUM
same,MINIMUM INHIBITING CONCENTRATIONS,Plectridium tetani,0.2-0.6 […] MILILITER OF MEDIUM
same,"Serum concentration of erythromycine, Average",[3],988 ng/mL
same,MINIMUM INHIBITING CONCENTRATIONS,[4],0.2-3.1 […] MILILITER OF MEDIUM
same,MINIMUM INHIBITING CONCENTRATIONS,Staph. aureus,0.01-1.6 […] MILILITER OF MEDIUM
same,MINIMUM INHIBITING CONCENTRATIONS,Haemophilus influenzae,0.4-3.1 […] MILILITER OF MEDIUM
same,MINIMUM INHIBITING CONCENTRATIONS,Neisseria menigitidis,0.2-1.6 […] MILILITER OF MEDIUM
same,MINIMUM INHIBITING CONCENTRATIONS,Pasteurella multocida,0.8 […] MILILITER OF MEDIUM
same,MINIMUM INHIBITING CONCENTRATIONS,Clostridium perfringens,0.1-0.2 […] MILILITER OF MEDIUM
same,MINIMUM INHIBITING CONCENTRATIONS,Listeria monocytogenes,0.2 […] MILILITER OF MEDIUM
same,MINIMUM INHIBITING CONCENTRATIONS,Brucella melitensis,0.3 […] MILILITER OF MEDIUM
